# Measured values from article PMC8050083, “Naturally-occurring spinosyn A and its derivatives function as argininosuccinate synthase activator and tumor inhibitor” (Nature Communications, 2021).
# Where two headings read alike, the source gives them in different places.
# Key:
# [1] = biological target: T1, Argininosuccinate synthase (ASS1) (Homo sapiens, UniProt P00966); experiment: SPR (BIAcore X100); also LC-MS/MS of Cys97 adduct, competition with Biotin-SPA, enzyme activation (AC50 […]); format: binding
# T1 construct: recombinant human ASS1, N-terminal 6×His tag (pET28a), NM_000050
# T1 sequence (P00966 1-412): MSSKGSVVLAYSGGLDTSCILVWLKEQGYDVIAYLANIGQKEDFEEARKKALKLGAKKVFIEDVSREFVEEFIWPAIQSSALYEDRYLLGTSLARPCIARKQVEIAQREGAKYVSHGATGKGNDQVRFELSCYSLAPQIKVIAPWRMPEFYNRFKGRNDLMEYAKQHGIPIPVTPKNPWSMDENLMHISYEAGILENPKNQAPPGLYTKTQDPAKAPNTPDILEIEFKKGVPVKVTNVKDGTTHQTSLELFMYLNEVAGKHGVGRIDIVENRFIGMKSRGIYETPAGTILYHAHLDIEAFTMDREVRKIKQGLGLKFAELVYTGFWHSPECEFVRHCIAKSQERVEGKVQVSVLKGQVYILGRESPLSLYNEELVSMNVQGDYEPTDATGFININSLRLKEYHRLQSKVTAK
# [2] = tested on: 184B5; experiment: in vitro; design: crystal violet staining viability/proliferation assay, IC50 (SPSS), LM-2I on breast cancer and normal breast epithelial lines; details: mean of 3 repeats; given as IC50; inhibitor
# Description: (§1) Fig. 1 SPA and its derivative LM-2I inhibit breast cancer proliferation and growth. a Chemical structures of SPA (1). b Crystal violet assay for the effects of SPA on breast cancer cell proliferation. IC50 values were calculated with SPSS 18.0 (mean ± s.d., n = 3 biologically independent experiments). c Representative microscope images of colony formation for different breast cancer cell lines treated with SPA. Scale bars are 40 µM. d Chemical structures of LM-2I (2). e Crystal violet assay for the effects of LM-2I on breast cancer cell proliferation. IC50 values were calculated with SPSS 18.0 (mean ± s.d., n = 3 biologically independent experiments). f Representative microscope images of colony formation for different breast cancer cell lines treated with LM-2I. Scale bars are 40 µM. MDA-MB-231 cells were inoculated subcutaneously into the right flank of nu/nu female mice. When the average tumor size reached about 100 mm^3, mice were treated with ether vehicle, SPA (10 mg/kg/day) or LM-2I (5 mg/kg/day). Tumor sizes (g) and mouse body weight (i) were measured every 2 days. 28 days later, mice were sacrificed and tumors were dissected and weighted (h). Data represent mean ± s.d. (n = 8 mice per group). *P < 0.05, ***P < 0.001, NS: not significant (P > 0.05) from two-tailed unpaired Student’s t tests.Source data are provided as a Source Data file. […]
# [3] = in vitro; design: crystal violet staining viability/proliferation assay, IC50 (SPSS), LM-2I on breast cancer and normal breast epithelial lines; details: human, Mean; mean of 3 repeats; given as IC50
# Description: as §1
# [4] = tested on: SKBR3; experiment: cells; design: crystal violet staining viability/proliferation assay, IC50 (SPSS), LM-2I on breast cancer and normal breast epithelial lines; details: Homo sapiens, SK-BR-3; mean of 3 repeats
# Description: (§2) Fig. 1 SPA and its derivative LM-2I inhibit breast cancer proliferation and growth. a Chemical structures of SPA (1). b Crystal violet assay for the effects of SPA on breast cancer cell proliferation. IC50 values were calculated with SPSS 18.0 (mean ± s.d., n = 3 biologically independent experiments). c Representative microscope images of colony formation for different breast cancer cell lines treated with SPA. Scale bars are […]. d Chemical structures of LM-2I (2). e Crystal violet assay for the effects of LM-2I on breast cancer cell proliferation. IC50 values were calculated with SPSS 18.0 (mean ± s.d., n = 3 biologically independent experiments). f Representative microscope images of colony formation for different breast cancer cell lines treated with LM-2I. Scale bars are […]. MDA-MB-231 cells were inoculated subcutaneously into the right flank of nu/nu female mice. When the average tumor size reached about 100 mm^3, mice were treated with ether vehicle, SPA (10 mg/kg/day) or LM-2I (5 mg/kg/day). Tumor sizes (g) and mouse body weight (i) were measured every 2 days. 28 days later, mice were sacrificed and tumors were dissected and weighted (h). Data represent mean ± s.d. (n = 8 mice per group). *P < 0.05, ***P < 0.001, NS: not significant (P > 0.05) from two-tailed unpaired Student’s t tests.Source data are provided as a Source Data file. All cell lines were purchased from American Type Culture Collection (ATCC, Manassas, VA, USA). The human breast cancer (BC) cell lines BT549, BT474 and T47D were maintained in RPMI 1640 containing 10% (v/v) fetal bovine serum (FBS, Gibco), 0.01 mg/mL insulin and 100 units/mL penicillin/streptomycin (HyClone). SKBR3, Hs578T, and BT20 human BC cell lines were cultured in DMEM medium with 10% (v/v) FBS and 100 units/mL penicillin/streptomycin. HCC1500, HCC1806, and HCC1937 human BC cell lines were cultured in RPMI 1640 medium supplement with 10% (v/v) FBS and 100 units/mL penicillin/streptomycin. MDA-MB-231 human BC cell line was cultured in DMEM/F12 (1: 1) medium with 10% (v/v) FBS and 100 units/mL penicillin/streptomycin. MDA-MB-468 human BC cell line was cultured in DMEM (high glucose) medium with 10% (v/v) FBS and 100 units/mL penicillin/streptomycin. MCF-7 human BC cell line was cultured in EMEM medium with 10% (v/v) FBS, 0.01 mg/mL insulin and 100 units/mL penicillin/streptomycin. […] All of the cells cultured in a humidified incubator at 37 °C and 5% CO2/95% air (v/v).
# [5] = tested on: T47D; experiment: cells; design: crystal violet staining viability/proliferation assay, IC50 (SPSS), LM-2I on breast cancer and normal breast epithelial lines; details: Homo sapiens, T47D; mean of 3 repeats
# Description: as §2
# [6] = tested on: HCC1500; experiment: cells; design: crystal violet staining viability/proliferation assay, IC50 (SPSS), LM-2I on breast cancer and normal breast epithelial lines; details: HCC1500; mean of 3 repeats
# Description: as §2
# [7] = tested on: MDA-MB-468; experiment: cells; design: crystal violet staining viability/proliferation assay, IC50 (SPSS), LM-2I on breast cancer and normal breast epithelial lines; details: Homo sapiens, MDA-MB-468; mean of 3 repeats
# Description: as §2
# [8] = tested on: BT474; experiment: cells; design: crystal violet staining viability/proliferation assay, IC50 (SPSS), LM-2I on breast cancer and normal breast epithelial lines; details: Homo sapiens, BT-474; mean of 3 repeats
# Description: as §2
# [9] = tested on: BT549; experiment: cells; design: crystal violet staining viability/proliferation assay, IC50 (SPSS), LM-2I on breast cancer and normal breast epithelial lines; details: Homo sapiens, BT-549; mean of 3 repeats
# Description: as §2
# [10] = tested on: HCC1937; experiment: cells; design: crystal violet staining viability/proliferation assay, IC50 (SPSS), LM-2I on breast cancer and normal breast epithelial lines; details: Homo sapiens, HCC1937; mean of 3 repeats
# Description: as §2
# [11] = tested on: HCC1806; experiment: cells; design: crystal violet staining viability/proliferation assay, IC50 (SPSS), LM-2I on breast cancer and normal breast epithelial lines; details: Homo sapiens, HCC1806; mean of 3 repeats
# Description: as §2
# [12] = tested on: HS578T; experiment: cells; design: crystal violet staining viability/proliferation assay, IC50 (SPSS), LM-2I on breast cancer and normal breast epithelial lines; details: Homo sapiens, Hs-578T; mean of 3 repeats
# Description: as §2
# [13] = tested on: MDA-MB-231; experiment: cells; design: crystal violet staining viability/proliferation assay, IC50 (SPSS), LM-2I on breast cancer and normal breast epithelial lines; details: Homo sapiens, MDA-MB-231; mean of 3 repeats
# Description: as §2
# [14] = tested on: BT20; experiment: cells; design: crystal violet staining viability/proliferation assay, IC50 (SPSS), LM-2I on breast cancer and normal breast epithelial lines; details: Homo sapiens, BT-20; mean of 3 repeats
# Description: as §2
# [15] = tested on: MCF-7; experiment: cells; design: crystal violet staining viability/proliferation assay, IC50 (SPSS), LM-2I on breast cancer and normal breast epithelial lines; details: Homo sapiens, MCF7; mean of 3 repeats
# Description: as §2
# [16] = biological target: T1, Argininosuccinate synthase (ASS1); experiment: SPR (BIAcore X100); also LC-MS/MS of Cys97 adduct, competition with Biotin-SPA, enzyme activation (AC50 […]); format: binding; remark: listed apart in the source
# [17] = biological target: T1, Argininosuccinate synthase (ASS1); experiment: covalent labelling kinetics by streptavidin-HRP blot (kinact […] min^-1); pull-down from MCF-7 lysate; format: binding; details: read-out: Ki
structure (smiles),measurement,setting,value
"CC[C@H]1CCC[C@H](O[C@H]2CC[C@H](N(C)C)[C@@H](C)O2)[C@@H](C)C(=O)C2=C[C@@H]3[C@@H](C=C[C@@H]4C[C@@H](O[C@@H]5O[C@@H](C)[C@H](OC)[C@@H](OC)[C@H]5OC)C[C@@H]34)[C@@H]2CC(=O)O1 [compound 1, spinosyn A]",Kd,[1],0.358 µM
"CC[C@H]1CCC[C@H](O[C@H]2CC[C@H](N(C)CC(O)CN3CCNCC3)[C@@H](C)O2)[C@@H](C)C(=O)C2=C[C@@H]3[C@@H](C=C[C@@H]4C[C@@H](O[C@@H]5O[C@@H](C)[C@H](OC)[C@@H](OC)[C@H]5OC)C[C@@H]34)[C@@H]2CC(=O)O1 (some centres unmarked) [compound 2, LM-2I]",CC50,[2],7.89 µM
same,CC50,[3],8.52 µM
same,IC50,[4],5.12 µM
same,IC50,[5],5.95 µM
same,IC50,[6],10 µM
same,IC50,[7],5.11 µM
same,IC50,[8],6.2 µM
same,IC50,[9],1.51 µM
same,IC50,[10],7.64 µM
same,IC50,[11],2.13 µM
same,IC50,[12],1.76 µM
same,IC50,[13],1.09 µM
same,IC50,[14],8.22 µM
same,IC50,[15],5.94 µM
same,Kd,[16],0.194 µM
"CC[C@H]1CCC[C@H](O[C@H]2CC[C@H](N(C)CCCCCCOC(=O)CCCC[C@@H]3SC[C@@H]4NC(=O)N[C@@H]43)[C@@H](C)O2)[C@@H](C)C(=O)C2=C[C@@H]3[C@@H](C=C[C@@H]4C[C@@H](O[C@@H]5O[C@@H](C)[C@H](OC)[C@@H](OC)[C@H]5OC)C[C@@H]34)[C@@H]2CC(=O)O1 [compound 4, Biotin-SPA]",KI (inactivation),[17],9.01 µM
